Several values for one entry are separate records, joined by “and”; a condition that tells them apart may be missing. Equal values may be shown once. Toxic doses and inconclusive results are not listed. The calls were made as follows: active = survival T/C of 150% or more; inactive = T/C below 125% in these data.
Test system: P388 leukemia ip, CD2F1 mice, survival T/C
Experiment: NCI In Vivo Anticancer Drug Screen. Data for tumor model P388 Leukemia (intraperitoneal) in CD2F1 (CDF1) mice
Details: endpoint: median survival time, higher = longer survival
Method in brief: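 Mice carrying the transplanted tumor received test compound or vehicle. Survival was recorded in each group, and the value is the treated-group measurement divided by that of the vehicle-treated control group.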

[1] = dose: 25.0 mg/kg/injection, schedule: Q01DX009 (ip), vehicle: saline with Tween-80
[2] = dose: 50.0 mg/kg/injection, schedule: Q01DX009 (ip), vehicle: saline with Tween-80
[3] = dose: 100.0 mg/kg/injection, schedule: Q01DX009 (ip), vehicle: saline with Tween-80
[4] = dose: 200.0 mg/kg/injection, schedule: Q01DX009 (ip), vehicle: saline with Tween-80
[5] = dose: 100.0 mg/kg/injection, schedule: Q04DX003 (ip), vehicle: Klucel (hydroxypropylcellulose) (HPC)
[6] = dose: 200.0 mg/kg/injection, schedule: Q04DX003 (ip), vehicle: Klucel (hydroxypropylcellulose) (HPC)
[7] = dose: 50.0 mg/kg/injection, schedule: Q01DX005 (ip), vehicle: Klucel (hydroxypropylcellulose) (HPC)
[8] = dose: 100.0 mg/kg/injection, schedule: Q01DX005 (ip), vehicle: Klucel (hydroxypropylcellulose) (HPC)
[9] = dose: 200.0 mg/kg/injection, schedule: Q01DX005 (ip), vehicle: Klucel (hydroxypropylcellulose) (HPC)
[10] = dose: 50.0 mg/kg/injection, schedule: Q01DX009 (ip), vehicle: saline
[11] = dose: 50.0 mg/kg/injection, schedule: Q01DX005 (ip), vehicle: saline with Tween-80
[12] = dose: 100.0 mg/kg/injection, schedule: Q01DX005 (ip), vehicle: saline with Tween-80
[13] = dose: 100.0 mg/kg/injection, schedule: Q01DX001 (ip), vehicle: saline with Tween-80
[14] = dose: 200.0 mg/kg/injection, schedule: Q01DX001 (ip), vehicle: saline with Tween-80
[15] = dose: 400.0 mg/kg/injection, schedule: Q01DX001 (ip), vehicle: saline with Tween-80

Measured: T/C

O=C(c1ccccc1)C(F)(F)C(F)(F)F
inactive: [1] 107 % of control | [2] 109 % of control | [3] 110 % of control | [4] 109 % of control

[Co+2].[O-]c1cc2ccccc2cc1/C=N/c1ccccn1.[O-]c1cc2ccccc2cc1/C=N/c1ccccn1.[OH3+].[OH3+]
inactive: dose: 12.5 mg/kg/injection, schedule: Q04DX002 (ip), vehicle: saline with Tween-80 93 % of control | dose: 25.0 mg/kg/injection, schedule: Q04DX002 (ip), vehicle: saline with Tween-80 91 % of control | dose: 50.0 mg/kg/injection, schedule: Q04DX002 (ip), vehicle: saline with Tween-80 88 % of control

CCOP(O)(=S)OCC.[Ce]
inactive: [5] 99 % of control | [6] 100 % of control | dose: 400.0 mg/kg/injection, schedule: Q04DX003 (ip), vehicle: Klucel (hydroxypropylcellulose) (HPC) 93 % of control

CN(CCC#N)c1ccc(/C=C(\C#N)c2cccc(C(F)(F)F)c2)cc1
inactive: [7] 105 % of control | [8] 90 % of control | [9] 96 % of control

C=C1CC[C@H]2C(C)=CC[C@@H]3[C@H](OC(=O)[C@H]3COC)[C@@H]12
inactive: dose: 100.0 mg/kg/injection, schedule: Q01DX001 (ip), vehicle: saline 107 % of control | dose: 200.0 mg/kg/injection, schedule: Q01DX001 (ip), vehicle: saline 97 % of control | dose: 400.0 mg/kg/injection, schedule: Q01DX001 (ip), vehicle: saline 103 % of control

COC1C(O)C(CO)OC1n1ccc(NC(=O)c2ccccc2)nc1=O (stereo unspecified)
inactive: dose: 60.0 mg/kg/injection, schedule: Q01DX005 (ip), vehicle: Klucel (hydroxypropylcellulose) (HPC) 98 % of control and 93 % of control | dose: 120.0 mg/kg/injection, schedule: Q01DX005 (ip), vehicle: Klucel (hydroxypropylcellulose) (HPC) 94 % of control | dose: 240.0 mg/kg/injection, schedule: Q01DX005 (ip), vehicle: Klucel (hydroxypropylcellulose) (HPC) 91 % of control and 93 % of control

CN1CCN(c2ccccc2N)CC1
inactive: dose: 5.0 mg/kg/injection, schedule: Q01DX009 (ip), vehicle: saline with Tween-80 104 % of control | dose: 10.0 mg/kg/injection, schedule: Q01DX009 (ip), vehicle: saline with Tween-80 100 % of control | dose: 20.0 mg/kg/injection, schedule: Q01DX009 (ip), vehicle: saline with Tween-80 95 % of control

CCCCCCCCCCCCCCCCCC(=O)Nc1ncc([N+](=O)[O-])s1
inactive: dose: 50.0 mg/kg/injection, schedule: Q01DX009 (ip), vehicle: Klucel (hydroxypropylcellulose) (HPC) 106 % of control | dose: 100.0 mg/kg/injection, schedule: Q01DX009 (ip), vehicle: Klucel (hydroxypropylcellulose) (HPC) 101 % of control | dose: 200.0 mg/kg/injection, schedule: Q01DX009 (ip), vehicle: Klucel (hydroxypropylcellulose) (HPC) 101 % of control

CC12CCC(C/C1=N\[N+](=O)[O-])C2(C)C (stereo unspecified)
inactive: dose: 12.5 mg/kg/injection, schedule: Q01DX009 (ip), vehicle: suspension in saline 96 % of control | dose: 25.0 mg/kg/injection, schedule: Q01DX009 (ip), vehicle: suspension in saline 97 % of control | [10] 100 % of control | dose: 50.0 mg/kg/injection, schedule: Q01DX009 (ip), vehicle: suspension in saline 97 % of control | dose: 200.0 mg/kg/injection, schedule: Q01DX009 (ip), vehicle: saline 90 % of control

CN(C)C1CCC(NC2=CC(=O)C=CC2=O)CC1 (stereo unspecified)
inactive: dose: 0.78 mg/kg/injection, schedule: Q01DX005 (ip), vehicle: saline 101 % of control | dose: 1.56 mg/kg/injection, schedule: Q01DX005 (ip), vehicle: saline 97 % of control | dose: 3.12 mg/kg/injection, schedule: Q01DX005 (ip), vehicle: saline 97 % of control

O=C1SC/C(=N\N=c2/scc(-c3ccccc3)n2-c2ccccc2)N1Cc1ccccc1
inactive: dose: 100.0 mg/kg/injection, schedule: Q04DX002 (ip), vehicle: Klucel (hydroxypropylcellulose) (HPC) 90 % of control | dose: 200.0 mg/kg/injection, schedule: Q04DX002 (ip), vehicle: Klucel (hydroxypropylcellulose) (HPC) 91 % of control | dose: 400.0 mg/kg/injection, schedule: Q04DX002 (ip), vehicle: Klucel (hydroxypropylcellulose) (HPC) 88 % of control

CC12Cc3cnoc3C=C1CCC1C2CCC2(C)C1CCC2(C)O (stereo unspecified)
inactive: [11] 93 % of control | [12] 86 % of control

Cn1nc([N+](=O)[O-])nc1-c1ccccc1
inactive: [2] 106 % of control | [3] 98 % of control | [4] 107 % of control | dose: 400.0 mg/kg/injection, schedule: Q01DX009 (ip), vehicle: saline with Tween-80 107 % of control

CC1=CO/C(=C\[Si](C)(C)C)OC1c1ccccc1 (stereo unspecified)
inactive: [13] 104 % of control | [14] 108 % of control | [15] 103 % of control

Cc1ccccc1-n1c(=S)n(-c2ccc(Cl)cc2)c2nc3ccccc3nc1/c2=N/Nc1cc(Cl)ccc1Cl
inactive: [11] 95 % of control | [12] 92 % of control

O=C(NC(Cc1ccc(I)cc1)C(=O)O)c1ccc(Cl)cc1 (stereo unspecified)
inactive: [7] 95 % of control | [8] 100 % of control | [9] 108 % of control

CC1(C)N=C(N)N=C(N)N1c1cccc(CNC(=O)Nc2cccc(S(=O)(=O)F)c2)c1
active: dose: 44.0 mg/kg/injection, schedule: Q01DX009 (ip), vehicle: saline with Tween-80 159 % of control | [10] 163 % of control | dose: 67.0 mg/kg/injection, schedule: Q01DX009 (ip), vehicle: saline with Tween-80 163 % of control | [3] 168 % of control

CCOC(=O)c1cc(=O)oc(=O)[nH]1
inactive: dose: 6.25 mg/kg/injection, schedule: Q04DX003 (ip), vehicle: Klucel (hydroxypropylcellulose) (HPC) 105 % of control | dose: 12.5 mg/kg/injection, schedule: Q04DX003 (ip), vehicle: Klucel (hydroxypropylcellulose) (HPC) 112 % of control | dose: 25.0 mg/kg/injection, schedule: Q04DX003 (ip), vehicle: Klucel (hydroxypropylcellulose) (HPC) 114 % of control | [5] 89 % of control | [6] 87 % of control

COc1cccc(C(=O)c2ccncc2C)c1OC
inactive: dose: 12.5 mg/kg/injection, schedule: Q01DX009 (ip), vehicle: water 103 % of control | dose: 25.0 mg/kg/injection, schedule: Q01DX009 (ip), vehicle: water 102 % of control | dose: 50.0 mg/kg/injection, schedule: Q01DX009 (ip), vehicle: water 100 % of control | dose: 100.0 mg/kg/injection, schedule: Q01DX009 (ip), vehicle: water 97 % of control | dose: 200.0 mg/kg/injection, schedule: Q01DX009 (ip), vehicle: water 102 % of control

OCC1(OC2OC(CF)C(O)C(O)C2O)OC(CF)C(O)C1O (stereo unspecified)
inactive: dose: 60.0 mg/kg/injection, schedule: Q01DX005 (ip), vehicle: saline 102 % of control | dose: 120.0 mg/kg/injection, schedule: Q01DX005 (ip), vehicle: saline 101 % of control

CC1CC(C)CC(C)C(O)/C(C#N)=C/C=C/CC(C2CCCC2C(=O)O)OC(=O)CC(O)C(C)C1 (stereo unspecified)
active: dose: 0.5 mg/kg/injection, schedule: Q01DX009 (ip), vehicle: Klucel (hydroxypropylcellulose) (HPC) 163 % of control and 169 % of control | dose: 0.78 mg/kg/injection, schedule: Q01DX009 (ip), vehicle: Klucel (hydroxypropylcellulose) (HPC) 150 % of control | dose: 1.0 mg/kg/injection, schedule: Q01DX009 (ip), vehicle: Klucel (hydroxypropylcellulose) (HPC) 151 % of control and 152 % of control | dose: 1.56 mg/kg/injection, schedule: Q01DX009 (ip), vehicle: Klucel (hydroxypropylcellulose) (HPC) 151 % of control | dose: 3.13 mg/kg/injection, schedule: Q01DX009 (ip), vehicle: Klucel (hydroxypropylcellulose) (HPC) 153 % of control

C=CN1C(=O)N(C=C)C(C)(CC(C)C)C1=O (stereo unspecified)
inactive: [2] 100 % of control | [3] 100 % of control | [4] 112 % of control

NC(CCC(=O)OCCn1c2ccccc2c2ccccc21)C(=O)O (stereo unspecified)
inactive: [1] 97 % of control | [2] 93 % of control | [3] 97 % of control

O=C1OC(C(O)CO)C(O)C1O (stereo unspecified)
inactive: [7] 99 % of control | dose: 50.0 mg/kg/injection, schedule: Q01DX005 (ip), vehicle: saline 94 % of control and 109 % of control and 102 % of control | [8] 97 % of control | dose: 100.0 mg/kg/injection, schedule: Q01DX005 (ip), vehicle: saline 96 % of control and 105 % of control and 98 % of control | [9] 101 % of control | dose: 200.0 mg/kg/injection, schedule: Q01DX005 (ip), vehicle: saline 96 % of control and 105 % of control

CC(=O)O.CC(C)=CCC(OC(=O)C=C(C)C)c1cc(O)c2c(O)ccc(O)c2c1O.[Cr] (stereo unspecified)
inactive: [13] 93 % of control | [14] 93 % of control | [15] 94 % of control
